Values quoted from earlier work in patent publication US20020120149A1, “Substituted hydrazine derivatives” (priority 2000, published 2002).

System: NMDA receptor
Conditions: in vitro at concentrations at which clinical efficacy is seen

increase in NMDA receptor activity: ~40%
SMILES: O=C(CCCN1CCC(O)(c2ccc(Cl)cc2)CC1)c1ccc(F)cc1 [haloperidol]
